Paper PMC9821961, “Ring-Modified Histidine-Containing Cationic Short Peptides Exhibit Anticryptococcal Activity by Cellular Disruption” (Molecules, 2022)
In brackets after ≈: the same amount, converted by molar mass. Like-named read-outs stand apart in the source and are kept apart here.

Assays:
[1] = test system: C. krusei; test: microbe, parasite or virus in culture; type: cell-based, Candida krusei; settings: 48 h
Source text: (§1) Microbial strains: Microbial strains were procured from National Culture Collection of Pathogenic Fungi (NCCPF) at the Postgraduate Institute of Medical Education & Research (PGIMER), Chandigarh and Microbial Type Culture Collection and Gene bank (MTCC) at the Institute of Microbial Technology (IMTECH), Chandigarh, India. Peptides were screened against five different strains of fungi: viz. Candida albicans (NCCPF400034), Candida glabrata (MTCC 3019), Candida parapsilosis (NCCPF 440002), Candida krusei (NCCPF 440002) and Cryptococcus neoformans (NCCPF250316), and five strains of bacteria: viz. Escherichia coli (MTCC 2961), Staphylococcus aureus (MTCC 3160), Enterococcus faecalis (MTCC 439), Streptococcus pyogenes (MTCC 442) and Pseudomonas aeruginosa (MTCC 3542).
(§2) Growth media: Antifungal susceptibility testing was carried out using standard broth microdilution assays as per the Clinical and Laboratory Standards Institute (CLSI) guidelines for fungi. RPMI 1640 (Sigma), yeast extract, peptone and dextrose (YPED, Himedia) were used as the incubation broths. The cells were diluted to a cell density of 10^3 colony forming unit (CFU/mL) and incubated at 30 °C for 48 h. Furthermore, Muller Hinton (Himedia) media was utilized for bacterial strains and antibacterial activity was evaluated per CLSI guidelines for bacteria. Bacterial cells were diluted to a cell density of 10^5 CFU/mL and incubated at 37 °C for 24 h. Amphotericin B (Himedia, India) and rifampicin (Himedia, India) were used as standard drugs for the evaluation of activity against all the fungal and bacterial strains, respectively.
(§3) The stock solutions of peptides (2 mg/mL) were prepared in DMSO. Specific amounts of peptide from stock solution were added to a 96-well microtiter plate containing 100 μL of growth media and then serially diluted two-fold. A further 100 μL of growth media containing microbial cells were added to each well and incubated at 30–37 °C for 24–48 h. The optical density (OD) was measured at 600 nm using a BioStack Ready (BioTek Instruments, Winooski, VT, USA) microplate reader to analyze microbial growth inhibition, and IC50 and MIC values were calculated. To visualize the growth and inhibition pattern, a solution of 3-(4,5-dimethylthiazol-2-yl)-2,5-diphenyltetrazolium bromide (MTT) in water was added to the plate and incubated for 2–3 h. MTT reacts with the mitochondrial dehydrogenases, which are present only in a viable cell, to give blue colored formazan crystals. Therefore, a darker color indicates a high number of viable cells; however, non-viable cells appear pale or colorless.

[2] = test system: C. neoformans cells; test: Time kill assay; settings: negative-control peptides, compared with untreated cells, 24 h
[3] = test system: C. parapsilosis; test: microbe, parasite or virus in culture; type: cell-based, Candida parapsilosis; settings: 48 h
Source text: as §1, §2, §3

[4] = test system: C. neoformans; test: microbe, parasite or virus in culture; type: cell-based, Cryptococcus neoformans
Source text: as §1, §2, §3

[5] = test system: C. albicans; test: microbe, parasite or virus in culture; type: cell-based, Candida albicans; settings: 48 h
Source text: as §1, §2, §3

[6] = test system: C. glabrata; test: microbe, parasite or virus in culture; type: cell-based, Candida glabrata; settings: 48 h
Source text: as §1, §2, §3

[7] = test system: S. pyogens; test: microbe, parasite or virus in culture; type: cell-based, Streptococcus pyogenes
[8] = test system: E. faecalis; test: microbe, parasite or virus in culture; type: cell-based, Enterococcus faecalis
[9] = test system: P. aeruginosa; test: microbe, parasite or virus in culture; type: cell-based, Pseudomonas aeruginosa
[10] = test system: S. aureus; test: microbe, parasite or virus in culture; type: cell-based, Staphylococcus aureus
Source text: as §1
as §2, with “Bacterial cells were diluted to a cell density of 10^5 CFU/mL and incubated at 37 °C for 24 h.” left out
as §3

[11] = test system: E. coli; test: microbe, parasite or virus in culture; type: cell-based, Escherichia coli
Source text: as §1
as §2, with “Bacterial cells were diluted to a cell density of 10^5 CFU/mL and incubated at 37 °C for 24 h.” left out
as §3

IC50 [1] [mg/L] | MIC [1] [mg/L] | IC50 [3] [mg/L] | MIC [3] [mg/L] | IC50 ([4]; 48 h) [mg/L] | MIC ([4]; 48 h) [mg/L] | IC50 [5] [mg/L] | MIC [5] [mg/L] | IC50 [6] [mg/L] | MIC [6] [mg/L] | IC50 ([7]; 48 h) [mg/L] | MIC ([7]; 48 h) [mg/L] | IC50 ([8]; 48 h) [mg/L] | MIC ([8]; 48 h) [mg/L] | IC50 ([9]; 48 h) [mg/L] | MIC ([9]; 48 h) [mg/L] | IC50 ([10]; 48 h) [mg/L] | MIC ([10]; 48 h) [mg/L] | IC50 ([11]; 48 h) [mg/L] | MIC ([11]; 48 h) [mg/L] | Compound | also measured
>35.2 | >64.0 | >35.2 | >64.0 | >35.2 | >64.0 | >35.2 | >64.0 | >35.2 | >64.0 | – | – | – | – | – | – | – | – | – | – | COC(=O)[C@H](Cc1ncn(Cc2cc(C(C)(C)C)cc(C(C)(C)C)c2)c1I)NC(=O)[C@H](Cc1c[nH]c2ccccc12)NC(=O)OC(C)(C)C [9d] | Growth inhibition in time-kill profile [2]: did not show any growth inhibition
>35.2 | >64.0 | >35.2 | >64.0 | 5.15 (≈ 8.21 µM) | – | >35.2 | >64.0 | >35.2 | >64.0 | >35.2 | >64.0 | >35.2 | >64.0 | >35.2 | >64.0 | 35.2 (≈ 56.1 µM) | 64.0 (≈ 102 µM) | 35.2 (≈ 56.1 µM) | 64.0 (≈ 102 µM) | COC(=O)[C@H](Cc1ncn(Cc2ccc(C(C)(C)C)cc2)c1I)NC(=O)[C@@H](N)Cc1c[nH]c2ccccc12 [10b] | –
>35.2 | >64.0 | >35.2 | >64.0 | 8.81 (≈ 14.4 µM) | 16.02 (≈ 26.1 µM) | >35.2 | >64.0 | >35.2 | >64.0 | >35.2 | >64.0 | >35.2 | >64.0 | >35.2 | >64.0 | >35.2 | >64.0 | >35.2 | >64.0 | COC(=O)[C@H](Cc1ncn(Cc2ccc(C(C)C)cc2)c1I)NC(=O)[C@@H](N)Cc1c[nH]c2ccccc12 [10c] | –
>35.2 | >64.0 | >35.2 | >64.0 | 4.87 (≈ 7.62 µM) | 8.86 (≈ 13.9 µM) | >35.2 | >64.0 | >35.2 | >64.0 | >35.2 | >64.0 | >35.2 | >64.0 | >35.2 | >64.0 | >35.2 | >64.0 | >35.2 | >64.0 | COC(=O)[C@H](Cc1ncn(Cc2cccc(C(F)(F)F)c2)c1I)NC(=O)[C@@H](N)Cc1c[nH]c2ccccc12 [10e] | –
>35.2 | >64.0 | >35.2 | >64.0 | 10.28 (≈ 16.9 µM) | – | >35.2 | >64.0 | >35.2 | >64.0 | – | – | – | – | – | – | – | – | – | – | COC(=O)[C@H](Cc1ncn(Cc2ccc(F)c(F)c2)c1I)NC(=O)[C@@H](N)Cc1c[nH]c2ccccc12 [10i] | MIC ([4]; C. neoformans, lowest test concentration with no detectable growth): 18.7 mg/L (≈ 30.8 µM)
>35.2 | >64.0 | >35.2 | >64.0 | 6.09 (≈ 10 µM) | 11.08 (≈ 18.2 µM) | >35.2 | >64.0 | >35.2 | >64.0 | – | – | – | – | – | – | – | – | – | – | COC(=O)[C@H](Cc1ncn(Cc2cc(F)cc(F)c2)c1I)NC(=O)[C@@H](N)Cc1c[nH]c2ccccc12 [10j] | –
>35.2 | >64.0 | >35.2 | >64.0 | 2.78 (≈ 4.72 µM) | 4.64 (≈ 7.87 µM) | >35.2 | >64.0 | >35.2 | >64.0 | >35.2 | >64.0 | >35.2 | >64.0 | >35.2 | >64.0 | >35.2 | >64.0 | >35.2 | >64.0 | COC(=O)[C@H](Cc1ncn(Cc2cccc(F)c2)c1I)NC(=O)[C@@H](N)Cc1c[nH]c2ccccc12 [10k] | –
>35.2 | >64.0 | >35.2 | >64.0 | – | 32.11 (≈ 53 µM) | >35.2 | >64.0 | >35.2 | >64.0 | >35.2 | >64.0 | >35.2 | >64.0 | >35.2 | >64.0 | >35.2 | >64.0 | >35.2 | >64.0 | COC(=O)[C@H](Cc1ncn(Cc2cccc(Cl)c2)c1I)NC(=O)[C@@H](N)Cc1c[nH]c2ccccc12 [10l] | –
>35.2 | >64.0 | >35.2 | >64.0 | 9.23 (≈ 14.2 µM) | 16.79 (≈ 25.8 µM) | >35.2 | >64.0 | >35.2 | >64.0 | – | – | – | – | – | – | – | – | – | – | COC(=O)[C@H](Cc1ncn(Cc2cccc(Br)c2)c1I)NC(=O)[C@@H](N)Cc1c[nH]c2ccccc12 [10m] | –
>35.2 | >64.0 | >35.2 | >64.0 | – | 32.05 (≈ 46 µM) | >35.2 | >64.0 | >35.2 | >64.0 | >35.2 | >64.0 | >35.2 | >64.0 | >35.2 | >64.0 | >35.2 | >64.0 | >35.2 | >64.0 | COC(=O)[C@H](Cc1ncn(Cc2cccc(I)c2)c1I)NC(=O)[C@@H](N)Cc1c[nH]c2ccccc12 [10n, Trp-His[1-(3-iodobenzyl)-5-iodo]-OMe] | –
– | – | – | – | – | – | – | – | – | – | – | – | – | – | – | – | – | – | – | – | CO[C@H]1/C=C/O[C@@]2(C)Oc3c(C)c(O)c4c(O)c(c(/C=N/N5CCN(C)CC5)c(O)c4c3C2=O)NC(=O)/C(C)=C\C=C\[C@H](C)[C@H](O)[C@@H](C)[C@@H](O)[C@@H](C)[C@H](OC(C)=O)[C@@H]1C [Rifampicin, reference compound] | IC50 ([7]; Streptococcus pyogenes, S. pyogens, read-out: IC50): 1 mg/L (≈ 1.22 µM); MIC ([7]; Streptococcus pyogenes, S. pyogens, read-out: MIC): 2 mg/L (≈ 2.43 µM); IC50 ([8]; Enterococcus faecalis, E. faecalis, read-out: IC50): 1 mg/L (≈ 1.22 µM); MIC ([8]; Enterococcus faecalis, E. faecalis, read-out: MIC): 2 mg/L (≈ 2.43 µM); IC50 ([9]; Pseudomonas aeruginosa, P. aeruginosa, read-out: IC50): 16 mg/L (≈ 19.4 µM); MIC ([9]; Pseudomonas aeruginosa, P. aeruginosa, read-out: MIC): 32 mg/L (≈ 38.9 µM); IC50 ([10]; Staphylococcus aureus): 2 mg/L (≈ 2.43 µM); MIC ([10]; Staphylococcus aureus): 4 mg/L (≈ 4.86 µM); IC50 ([11]; Escherichia coli): 1 mg/L (≈ 1.22 µM); MIC ([11]; Escherichia coli): 2 mg/L (≈ 2.43 µM)
